According to patent US11066414B2, “Cot modulators and methods of use thereof” (Gilead Sciences, Inc., priority 2015, dated 2021):
Like-named read-outs stand apart in the source and are kept apart here.

Experiments:
Human Cot = Human Cot (Homo sapiens (Human), UniProt P41279); assay: High Throughput Cot Biochemical Assay
TNFα = assay: Cot Monocyte TNFα Cell Based Assay
[1] = IC50 HTRF, Cot HTRF (TR-FRET) biochemical assay
[2] = Homo sapiens, Monocyte, read-out: EC50 TNF, LPS-stimulated human monocytes, TNFα
[3] = read-out: IC50 HTRF, Cot HTRF (TR-FRET) biochemical assay
[4] = read-out: EC50 TNF, LPS-stimulated human monocytes, TNFα

Chain of Human Cot (P41279 30-397): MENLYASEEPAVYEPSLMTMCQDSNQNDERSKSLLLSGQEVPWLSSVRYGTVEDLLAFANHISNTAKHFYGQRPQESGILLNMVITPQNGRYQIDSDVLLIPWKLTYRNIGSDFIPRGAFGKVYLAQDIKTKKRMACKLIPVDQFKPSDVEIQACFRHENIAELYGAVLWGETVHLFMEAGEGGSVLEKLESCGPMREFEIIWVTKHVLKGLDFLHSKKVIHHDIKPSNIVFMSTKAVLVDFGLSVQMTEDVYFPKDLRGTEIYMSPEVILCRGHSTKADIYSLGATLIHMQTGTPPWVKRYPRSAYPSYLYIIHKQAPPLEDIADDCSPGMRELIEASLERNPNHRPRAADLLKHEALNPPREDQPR

| Compound | IC50 (Human Cot; [1]) | EC50 (TNFα; [2]) | further results |
| --- | --- | --- | --- |
| COc1nccc2c([C@H](Nc3cc(Cl)c4ncc(C#N)c(NCC(C)(C)C(F)(F)F)c4c3)c3cn(C4(C)CC4)nn3)cccc12 [Example 927, (S)-8-chloro-6-(((1-methoxylsoquinolin-5-yl)(1-(1-methylcyclopropyl)-1H-1,2,3-triazol-4-yl)methyl)amino)-4-((3,3,3-trifluoro-2,2-dimethylpropyl)amino)quinoline-3-carbonitrile] | – | – | IC50 (Human Cot; read-out: IC50 HTRF, Cot HTRF (TR-FRET KinEASE) biochemical assay, 400 μM ATP): 6 nM; EC50 (TNFα; read-out: EC50 TNF, LPS-stimulated human monocytes, TNFα TR-FRET): 124 nM |
| CC(C)(C)CNc1c(C#N)cnc2c(Cl)cc(N[C@@H](c3ccc4nccn4c3)c3cn(C4(C(F)(F)F)CC4)nn3)cc12 [Example 935, (S)-8-chloro-6-((imidazo[1,2-a]pyridin-6-yl(1-(1-(trifluoromethyl)cyclopropyl)-1H-1,2,3-triazol-4-yl)methyl)amino)-4-(neopentylamino)quinoline-3-carbonitrile] | – | – | IC50 (Human Cot; IC50 HTRF, Cot HTRF (TR-FRET KinEASE) biochemical assay, 400 μM ATP): 24 nM; EC50 (TNFα; Homo sapiens, Monocyte, read-out: EC50 TNF, LPS-stimulated human monocytes, TNFα TR-FRET): 424 nM |
| [2H][C@](Nc1cc(Cl)c2ncc(C#N)c(N[C@H](CC)c3ccccc3)c2c1)(c1ccc(F)nc1)c1cn(C2CC2)nn1 [Example 155, 8-chloro-6-(((S)-(1-cyclopropyl-1H-1,2,3-triazol-4-yl)(6-fluoropyridin-3-yl)methyl-d)amino)-4-(((R)-1-phenylpropyl)amino)quinoline-3-carbonitrile] | 2 nM | 79 nM | – |
| [2H]C(Nc1cc(Cl)c2ncc(C#N)c(N[C@H](CCC#N)c3ccccc3)c2c1)(c1cn(C2(C(F)(F)F)CC2)nn1)c1ccc(F)nc1C (stereo partly drawn) [Example 413, 8-chloro-4-(((R)-3-cyano-1-phenyl-propyl)amino)-6-(((6-fluoro-2-methyl-pyridin-3-yl)(1-(1-(trifluoromethyl)-cyclopropyl)-1H-1,2,3-triazol-4-yl)methyl-d)amino)quinoline-3-carbonitrile] | 4 nM | 44 nM | – |
| CN(C)CCCn1cc([C@@H](Nc2cc(Cl)c3ncc(C#N)c(Nc4ccc(F)c(Cl)c4)c3c2)c2cscn2)nn1 [Example 360, (S)-8-chloro-4-((3-chloro-4-fluorophenyl)amino)-6-(((1-(3-(dimethylamino)propyl)-1H-1,2,3-triazol-4-yl)(thiazol-4-yl)methyl)-amino)quinoline-3-carbonitrile] | 4 nM | 151 nM | – |
| Cc1nc(F)ccc1[C@H](Nc1cc(Cl)c2ncc(C#N)c(NCC(C)(C)C)c2c1)c1cn(C2(C(=O)N(C)C)CC2)nn1 [Example 553, (S)-1-(4-(((8-chloro-3-cyano-4-(neopentyl-amino)quinolin-6-yl)amino)(6-fluoro-2-methylpyridin-3-yl)methyl)-1H-1,2,3-triazol-1-yl)-N,N-dimethylcyclopropane-1-carboxamide] | 3 nM | 64 nM | – |
| Cc1nc(F)ccc1[C@H](Nc1cc(C#N)c2ncc(C#N)c(NCC(C)(C)C)c2c1)c1cn(C(C)(C)CF)nn1 [Example 625, (S)-6-(((1-{1-fluoro-2-methylpropan-2-yl)-1H-1,2,3-triazol-4-yl)(6-fluoro-2-methylpyridin-3-yl)methyl)amino)-4-(neopentylamino)quinoline-3,8-dicarbonitrile] | 2 nM | 26 nM | – |
| CC[C@@H](Nc1c(C#N)cnc2c(Cl)cc(N[C@@H](c3cccnc3)c3cn([C@H]4[C@@H]5CNC[C@@H]54)nn3)cc12)c1ccccc1 [Example 180, 6-(((S)-(1-((• R,5S,6s)-3-azabicyclo[3.1 0]hexan-6-yl)-1H-1,2,3-triazol-4-yl)(pyridin-3-yl)methyl)amino)-8-chloro-4-(((R)-1-phenylpropyl)amino)-quinoline-3-carbonitrile] | – | – | IC50 (Human Cot; [3]): 1 nM; EC50 (TNFα; [4]): 104 nM |
| Cn1ccc2c([C@H](Nc3cc(Cl)c4ncc(C#N)c(NCC(C)(C)C)c4c3)c3cn(C45CC(C4)C5)nn3)cccc21 [Example 735, (S)-6-(((1-(bicyclo[1.1.1]pentan-1-yl)-1H-1,2,3-triazol-4-yl)(1-methyl-1H-indol-4-yl)methyl)amino)-8-chloro-4-(neopentylamino)quinoline-3-carbonitrile] | 47 nM | 478 nM | – |
| [2H][C@](Nc1cc(Cl)c2ncc(C#N)c(Nc3cnc(F)c(F)c3)c2c1)(c1cccnc1)c1cn(-c2ccccc2)nn1 [Example 162, (S)-8-chloro-4-((5,6-difluoropyridin-3-yl)amino)-6-(((1-phenyl-1H-1,2,3-triazol-4-yl)(pyridin-3-yl)methyl-d)amino)quinoline-3-carbonitrile] | 7 nM | 429 nM | – |
| CC(C)(C)CNc1c(C#N)cnc2c(S(C)(=O)=O)cc(N[C@H](c3cn(C4(C(F)(F)F)CC4)nn3)c3cccc4ncsc34)cc12 [Example 442, (S)-6-((benzo[d]thiazol-7-yl(1-(1-(trifluoromethyl)cyclopropyl)-1H-1,2,3-triazol-4-yl)methyl)amino)-8-(methyl-sulfonyl)-4-(neopentylamino)quinoline-3-carbonitrile] | 56 nM | 2690 nM | – |
| Cn1ncc2c([C@H](Nc3cc(C#N)c4ncc(C#N)c(NCC(C)(C)C)c4c3)c3cn(Cc4c(F)cccc4F)nn3)cccc21 [Example 656] | – | – | IC50 (Human Cot; [3]): 4 nM; EC50 (TNFα; [4]): 86 nM |
| Cc1cncc2cccc([C@H](Nc3cc(Cl)c4ncc(C#N)c(NCC(C)(C)C)c4c3)c3cn(C4(C(F)(F)F)CC4)nn3)c12 [Example 659, (S)-8-chloro-6-(((4-methylisoquinolin-5-yl)(1-(1-(trifluoromethyl)cyclopropyl)-1H-1,2,3-triazol-4-yl)methyl)amino)-4-(neopentylamino)quinoline-3-carbonitrile] | 41 nM | 279 nM | – |
| CC(C)(C)CNc1c(C#N)cnc2c(Cl)cc(N[C@H](c3cn(C4CC4)nn3)c3cccc4ncccc34)cc12 [Example 437, (S)-8-chloro-6-(((1-cyclopropyl-1H-1,2,3-triazol-4-yl)(quinolin-5-yl)methyl)amino)-4-(neopentylamino)quinoline-3-carbonitrile] | 2 nM | 82 nM | – |
| CC(C)(C)CNc1c(C#N)cnc2c(C#N)cc(N[C@H](c3cn(C4(C(N)=O)CCC4)nn3)c3cccc4ncccc34)cc12 [Example 576, (S)-1-(4-(((3,8-dicyano-4-(neopentyl-amino)quinolin-6-yl)amino)(quinolin-5-yl)methyl)-1H-1,2,3-triazol-1-yl)cyclobutane-1-carboxamide] | 1 nM | 433 nM | – |
| CC(C)(C)CNc1c(C#N)cnc2c(Cl)cc(N[C@@H](c3cnc4ccccc4c3)c3cn(C4(C(F)(F)F)CC4)nn3)cc12 [Example 629, (S)-8-chloro-4-(neopentylamino)-6-((quinolin-3-yl(1-(1-(trifluoromethyl)cyclopropyl)-1H-1,2,3-triazol-4-yl)methyl)amino)quinoline-3-carbonitrile] | 181 nM | 1000 nM | – |
| CC(C)(C)N1CCC(n2cc([C@@H](Nc3cc(Cl)c4ncc(C#N)c(Nc5ccc(Cl)c(Cl)c5)c4c3)c3cscn3)nn2)CC1 [Example 350, (S)-6-(((1-(1-(tert-butyl)piperidin-4-yl)-1H-1,2,3-triazol-4-yl)(thiazol-4-yl)methyl)amino)-8-chloro-4-((3,4-dichlorophenyl)amino)quinoline-3-carbonitrile] | 26 nM | 4510 nM | – |
| CC(C)(CNc1c(C#N)cnc2c(Cl)cc(N[C@H](c3cn(C4(C5CC5)CC4)nn3)c3cccc4ncccc34)cc12)C(F)(F)F [Example 798, (S)-6-(((1-([1,1′-bi(cyclopropan)]-1-yl)-1H-1,2,3-triazol-4-yl)(quinolin-5-yl)methyl)amino)-8-chloro-4-((3,3,3-trifluoro-2,2-dimethylpropyl)amino)quinoline-3-carbonitrile] | 7 nM | 90 nM | – |
| Cn1ncc2c([C@H](Nc3cc(C#N)c4ncc(C#N)c(NCC(C)(C)C)c4c3)c3cn(C4(C)CC4)nn3)cccc21 [Example 529, (S)-6-(((1-methyl-1H-indazol-4-yl)(1-(1-methylcyclopropyl)-1H-1,2,3-triazol-4-yl)methyl)amino)-4-(neopentylamino)-quinoline-3,8-dicarbonitrile] | 2 nM | 50 nM | – |
| N#Cc1cnc2c(Cl)cc(NC(c3cccnc3)c3cn(C4CCNCC4)nn3)cc2c1Nc1ccc(F)c(Cl)c1 (stereo not shown) [Example 405, 8-chloro-4-((3-chloro-4-fluoro-phenyl)amino)-6-(((1-(piperidin-4-yl)-1H-1,2,3-triazol-4-yl)(pyridin-3-yl)methyl)amino)quinoline-3-carbonitrile] | 2 nM | 1040 nM | – |
| Cc1ncsc1[C@H](Nc1cc(Cl)c2ncc(C#N)c(Nc3cccc(Cl)c3F)c2c1)c1c[nH]nn1 [Example 251, (R)-8-chloro-4-((3-chloro-2-fluorophenyl)amino)-6-(((4-methylthiazol-5-yl)(1H-1,2,3-triazol-4-yl)methyl)amino)quinoline-3-carbonitrile] | 5 nM | 347 nM | – |
| CC(C)(O)[C@H](Nc1c(C#N)cnc2c(Cl)cc(N[C@@H](c3cccnc3)c3c[nH]nn3)cc12)c1ccccc1 [Example 188, 8-chloro-4-(((R)-2-hydroxy-2-methyl-1-phenylpropyl)amino)-6-(((S)-pyridin-3-yl(1H-1,2,3-triazol-4-yl)methyl)amino)quinoline-3-carbonitrile] | > 10000 nM | > 10000 nM | – |
| CC(C)(C)N1CCC(n2cc([C@@H](Nc3cc(Cl)c4ncc(C#N)c(Nc5ccc(F)c(Cl)c5)c4c3)C3=CCOCC3)nn2)CC1 [Example 264, (S)-6-(((1-(1-(tert-butyl)piperidin-4-yl)-1H-1,2,3-triazol-4-yl)(3,6-dihydro-2H-pyran-4-yl)methyl)amino)-8-chloro-4-((3-chloro-4-fluorophenyl)-amino)quinoline-3-carbonitrile] | 2 nM | 70 nM | – |
